Data published in paper PMC7998250, “Temperate Zone Plant Natural Products—A Novel Resource for Activity against Tropical Parasitic Diseases” (Pharmaceuticals, 2021).
pEC50: −log10 of the molar value. Where two headings read alike, the source gives them in different places.

Columns and labels:
[1] = tested on: T. brucei bloodstream form; experiment: Initial screen, T. brucei bloodstream form, Alamar Blue; type: cell-based, Trypanosoma brucei brucei; details: for activity at 2 µM / inhibition of growth at 2 µM: Trypanosoma brucei; for initial hit against T. brucei: growth reduced by ≥50%; for inhibition of growth at 2 µM: read-out: initial hit T.b
Method in brief: (§1)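 Bloodstream-form T. evansi Antat 3/3 and T. brucei Lister 427 were grown in HMI-11 with 10% FBS at 37 °C. Parasites were plated at 1×10^5 cells/mL with compound at 1 μM (T. evansi) or 2 μM (T. brucei) for 48 h, and growth was read by Alamar Blue relative to 1% DMSO controls (n = 6).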

[2] = tested on: L. mexicana axenic amastigotes; experiment: Concentration-response EC50, L. mexicana axenic amastigotes (WT); type: cell-based, Leishmania mexicana
[3] = tested on: L. donovani axenic amastigotes; experiment: Concentration-response EC50, L. donovani axenic amastigotes; type: cell-based; details: Leishmania donovani
Text: The four lanosterone-like sterols derived from the Noble Fir Abies procera (700022, 700107, 700136) and the Grand Fir Abies grandis (700240) were the only initial compounds taken forward for L. mexicana due to their nanomolar activity and apparent low cytotoxicity (Figure 3a). […] Understanding the impact of the ring-opened lactone head group in this compound compared to the other three warrants further analysis in exploring their structure-activity relationships. These four sterols were also tested for growth inhibitory activity against L. donovani axenic amastigotes. […] As Leishmania spp. amastigotes typically reside with macrophages, further cytotoxicity assays with these sterols were performed against an activated monocyte cell line (THP-1) (Figure 4b).

[4] = tested on: T. evansi bloodstream form; experiment: Initial screen, T. evansi bloodstream form, Alamar Blue; type: cell-based, Trypanosoma evansi; details: for activity at 1 µM / inhibition of growth at 1 µM: Trypanosoma evansi; for inhibition of growth at 1 µM: read-out: initial hit T.e
Method in brief: as §1

[5] = tested on: P. falciparum Dd2Luc intraerythrocytic trophozoites; experiment: Initial screen, intraerythrocytic P. falciparum, Malaria SYBR-Green I fluorescence assay; type: cell-based, Plasmodium falciparum; details: for activity at 2 µM / inhibition of growth at 2 µM: Plasmodium falciparum, 48 h; for initial hit against P. falciparum: 2 μM, growth reduced by ≥50%; for inhibition of growth at 2 µM: read-out: initial hit P.f
Method in brief: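 L. mexicana axenic amastigotes at 1 × 10^6 cells/mL exposed 72 h to compounds at 2 μM, growth read by Alamar Blue; P. falciparum trophozoites at 0.5% parasitaemia, 2% haematocrit, 48 h at 2 μM, SYBR-Green I read-out. Growth normalised to 1% DMSO; hits ≥50% growth reduction.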

[6] = tested on: P. falciparum Dd2Luc; experiment: Concentration-response EC50, P. falciparum Dd2Luc; type: cell-based, Plasmodium falciparum; details: 48 h
Text: Initial hits from the parasite panel screen were taken forward in log concentration versus normalised response assays to estimate the half maximal effective concentration (EC50) in hit species as well as the half maximal cytotoxic concentrations (CC50) in the human hepatoma cell line HepG2 as a preliminary test for selectivity. Using CC50/EC50 to define the selectivity index (SI), the selectivity for each compound in a defined species compared to a human cell line was estimated and compared to the EC50 (Figure 3).
EC50 values were determined by serial two-fold dilution of each compound in 96 well plates. Culture conditions and viability assays were as stated for the initial screen, with some exceptions. L. mexicana and L. donovani axenic amastigotes were seeded at 2 × 10^6 cell/s mL, T. brucei and T. evansi were seeded at 2 × 10^5 cells/mL. For cytotoxicity studies, HepG2 cells were seeded at 1 × 10^5 cells/mL, incubated for 48 h and viability was assessed using the Alamar Blue assay [66, 67]. […] Normalised growth and viability data (compared to untreated controls) were plotted against Log10 concentration to estimate EC50 in GraphPad (Prism v6).

[7] = mean % growth compared to a normalised control with same concentration of DMSO solvent, initial screen, read-out: % growth T. b. brucei
[8] = Leishmania mexicana, 72 h, read-out: L. mexicana EC50, axenic amastigotes, 72 h
[9] = mean % growth compared to a normalised control with same concentration of DMSO solvent, initial screen, read-out: % growth T. evansi
[10] = read-out: %growth P. falciparum, mean % growth compared to a normalised control with same concentration of DMSO solvent, initial screen
[11] = Plasmodium falciparum, read-out: P. falciparum Dd2Luc EC50, intraerythrocytic, 48 h
[12] = initial screen, compared to a normalised control with same concentration of DMSO solvent
[13] = read-out: mean % growth, T. b. brucei, initial screen, compared to a normalised control with same concentration of DMSO solvent
[14] = read-out: mean % growth, T. evansi, initial screen, compared to a normalised control with same concentration of DMSO solvent
[15] = read-out: mean % growth, P. falciparum, initial screen, compared to a normalised control with same concentration of DMSO solvent

`CC1=CC(O)(CC(C)C2(C)CC=C3C4=CCC5C(C)(C)C(O)CCC5(C)C4CCC32C)OC1=O` (stereo not drawn) [Compound 700022] gave an activity at 2 µM [1, 7] of 53.5%, a pEC50 [2, 8] of 6.60 and a pEC50 ([2]; Leishmania mexicana, read-out: WT EC50, L. mexicana WT axenic amastigotes) of 6.62. For the same compound, the pEC50 [3] was 6.85, the activity at 1 µM [4, 9] was 70.8% and the activity at 2 µM [5, 10] was 105%.
In the case of `CC1OC(OC2C(OC(=O)C3CC[C@@H]4[C@H](C3)OC3(CC(OC(=O)/C=C/c5ccccc5)[C@@H](C)CO3)C43CO3)OC(CO)C(O)C2O)C(O)C(O)C1O` (stereo partly drawn) [Compound 700042], the “initial hit against T. brucei” value ([1]; 2 μM) was “initial hits”, the activity at 2 µM ([1]; read-out: % growth T. b. brucei, mean % growth compared to a normalised control with same concentration of DMSO solvent, initial screen) was 1.6% and the inhibition of growth at 2 µM [1] was > 50%. For the same compound, the pEC50 [6, 11] was 6.55, the activity at 1 µM ([4]; read-out: % growth T. evansi, mean % growth compared to a normalised control with same concentration of DMSO solvent, initial screen) was 40.2% and the inhibition of growth at 1 µM [4] was > 50%. The “initial hit against P. falciparum” value [5] was “initial hits”, the activity at 2 µM [5, 10] was 28.9% and the inhibition of growth at 2 µM [5] was > 50%.
For `CC1=CC(O)(CC(C)C2(C)CCC3C4=CCC5C(C)(CCC(O)C5(C)C)C4=CCC32C)OC1=O` (stereo not drawn) [Compound 700107], the activity at 2 µM [1, 7] was 85.2%, the pEC50 [2, 8] was 6.59 and the pEC50 [3] was 6.59. The activity at 1 µM [4, 9] was 66.5% and the activity at 2 µM [5, 10] was 96.8%.
For `CC1=CC(O)(CC(C)C2(C)CC=C3C4=CCC5C(C)(C)C(=O)CCC5(C)C4CCC32C)OC1=O` (stereo not drawn) [Compound 700136], the activity at 2 µM [1, 7] was 104%, the pEC50 [2, 8] was 6.68 and the pEC50 [3] was 6.80. The activity at 1 µM [4, 9] was 76.2% and the activity at 2 µM [5, 10] was 99.9%.
For `C/C(=C/C(=O)CC(C)C1CCC2(C)C3=CCC4C(C)(C)C(=O)CCC4(C)C3CCC12C)C(=O)O` (stereo not drawn) [Compound 700240], the activity at 2 µM [1, 7] was 72.9%, the pEC50 [2, 8] was 6.29 and the pEC50 [3] was 6.47. The activity at 1 µM [4, 9] was 120% and the activity at 2 µM [5, 10] was 77.9%.
With `C=C1C(=O)OC2CC(C)C3C=CC(=O)C3(C)C(OC(C)=O)C12` (stereo not drawn) [Compound 701155] the “initial hit against T. brucei” value ([1]; 2 μM) was “initial hits”, the “mean % growth, T. b. brucei” value [1, 12] was -0.8% and the pEC50 [6, 11] was 5.80. The pEC50 ([2]; read-out: L. mexicana EC50, axenic amastigotes, 72 h) was 6.64, the inhibition of growth at 1 µM [4] was > 50% and the “mean % growth, T. evansi” value [4, 12] was 1.0%. The “mean % growth, P. falciparum” value [5, 12] was 55.1%.
`C=C1C(=O)OC2CC(C)C3C=CC(=O)C3(C)C(OC(=O)C(C)C)C12` (stereo not drawn) [Compound 701157] was tested, and the “initial hit against T. brucei” value ([1]; 2 μM) was “initial hits”, the inhibition of growth at 2 µM [1] was > 50% and the activity at 2 µM [1, 13] was -1.8%. For the same compound, the pEC50 [6, 11] was 5.74, the pEC50 [2, 8] was 6.70 and the inhibition of growth at 1 µM [4] was > 50%. For the same compound, the activity at 1 µM [4, 14] was -4.3% and the activity at 2 µM [5, 15] was 51.9%.
With `C=C1C(=O)OC2CC(C)C3C=CC(=O)C3(C)C(OC(=O)C(C)CC)C12` (stereo not drawn) [Compound 701158] the “initial hit against T. brucei” value ([1]; 2 μM) was “initial hits”, the inhibition of growth at 2 µM [1] was > 50% and the activity at 2 µM [1, 13] was -1.3%. It also gave a pEC50 [6, 11] of ~6.00, a pEC50 ([6]; read-out: P. falciparum Dd2Luc EC50, intraerythrocytic) of 5.80 and a pEC50 [2, 8] of 6.62. For the same compound, the inhibition of growth at 1 µM [4] was > 50%, the activity at 1 µM [4, 14] was 0.454% and the “initial hit against P. falciparum” value [5] was “initial hits”. The inhibition of growth at 2 µM [5] was > 50% and the activity at 2 µM [5, 15] was 49%.
In the case of `C=C1C(=O)OC2CC(C)C3C(OC)CC(=O)C3(C)C(OC(=O)C(C)CC)C12` (stereo not drawn) [Compound 701159], the “initial hit against T. brucei” value ([1]; 2 μM) was “initial hits”, the activity at 2 µM ([1]; initial screen, compared to a normalised control with same concentration of DMSO solvent, read-out: mean % growth, T. b. brucei) was 13.7% and the inhibition of growth at 2 µM ([1]; 2 μM, x = initial hit) was > 50%. The pEC50 [6, 11] was 5.35, the pEC50 [2, 8] was 6.06 and the activity at 1 µM ([4]; initial screen, compared to a normalised control with same concentration of DMSO solvent, read-out: mean % growth, T. evansi) was 82%. For the same compound, the activity at 2 µM [5, 15] was 83.7%.
